# Laboratory results from US20240262832A1, “SMALL MOLECULE MODULATORS OF GLUCOCEREBROSIDASE ACTIVITY AND USES THEREOF” (Vanqua Bio, Inc., priority 2021, published 2024).
# Molecular target: T1, GCase (Homo sapiens, UniProt P04062)
# T1 construct: endogenous in cells; host or cells: HeLa cells
# T1 sequence (P04062 40-536): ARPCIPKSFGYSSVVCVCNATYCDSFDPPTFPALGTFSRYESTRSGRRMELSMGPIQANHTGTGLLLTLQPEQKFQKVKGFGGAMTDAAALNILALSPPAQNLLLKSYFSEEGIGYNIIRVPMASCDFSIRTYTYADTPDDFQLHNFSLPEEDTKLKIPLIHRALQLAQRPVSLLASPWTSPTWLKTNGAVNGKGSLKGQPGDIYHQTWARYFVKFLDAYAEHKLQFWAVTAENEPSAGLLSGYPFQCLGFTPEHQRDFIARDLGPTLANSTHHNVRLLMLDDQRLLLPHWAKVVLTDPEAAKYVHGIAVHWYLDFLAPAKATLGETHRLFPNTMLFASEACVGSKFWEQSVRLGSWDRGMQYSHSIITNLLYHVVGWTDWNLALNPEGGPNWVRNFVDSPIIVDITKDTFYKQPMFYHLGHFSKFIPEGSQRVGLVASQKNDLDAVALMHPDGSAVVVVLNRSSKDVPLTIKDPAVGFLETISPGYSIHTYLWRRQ
# Assay: activation of GCase in a live cell PFB assay in HELA cells
# Assay type: cell-based
row,SMILES,EC50 [µM]
1,COc1ccc(OCC2CCN(Cc3nnc(C4CC(N)C4)n3C)CC2)cc1 (stereo not shown) [Compound 473],> 100
2,O=C(c1cc(=O)c2cc(Cl)ccc2o1)N1CCCC(COc2ccccc2)C1 (stereo not shown) [Compound 8],10 to 50
3,Cc1nccn1CCCC(=O)N1CCC(OCc2ccccc2)CC1 [Compound 451],> 100
4,CCCc1[nH]ncc1C(=O)N1CCC(OCc2ccccc2)CC1 [Compound 465],50 to 100
5,"O=C(N1CCC(Oc2ccccc2)CC1)C1(c2ccccc2)CCCC1 [Compound 404, 4-Phenoxy-1-(1-phenylcyclopentanecarbonyl)piperidine]",10 to 50
6,O=C(c1ccc(F)c(OC(F)(F)F)c1)N1CCCC(COc2ccccc2)C1 (stereo not shown) [Compound 217],10 to 50
7,COc1ccc(OCC2CCN(C(=O)Nc3cccc(CN)c3)CC2)cc1 [Compound 442],> 100
8,COc1ccc(OCC2CCN(Cc3cnc(C)[nH]3)CC2)cc1 [Compound 444],> 100
9,CSCc1ccc(C(=O)N2CCC(OCc3ccccc3)CC2)o1 [Compound 435],> 100
10,"FC(F)(F)c1cccc(OC[C@@H]2[C@H]3CN(c4cncc(-c5nncs5)n4)C[C@@H]23)n1 [Compound 60, (1R,5S,6S)-3-[6-(1,3,4-thiadiazol-2-yl)pyrazin-2-yl]-6-({[6-(trifluoromethyl)pyridin-2-yl]oxy}methyl)-3-azabicyclo[3.1.0]hexane]",< 10
11,COc1ccc(OCC2CCN(C(=O)Nc3ccc(C#N)cc3F)CC2)cc1 [Compound 443],50 to 100
12,COc1ccc(OCC2CCN(c3nccnc3N(C)C)CC2)cc1 [Compound 441],> 100
13,"O=C(c1nnc(C2(c3ccccc3)CCCC2)o1)N1CCCC(COc2ccccc2)C1 (stereo not shown) [Compound 3, (3-(phenoxymethyl)piperidin-1-yl)(5-(1-phenylcyclopentyl)-1,3,4-oxadiazol-2-yl)methanone]",10 to 50
14,"O=C(c1ccc2cc[nH]c2c1)N1CCC(Oc2ccc(C(F)(F)F)cn2)CC1 [Compound 333, (1H-Indol-6-yl)(4-((5-(trifluoromethyl)pyridin-2-yl)oxy)piperidin-1-yl)methanone]",10 to 50
15,"CC(C)c1cc(C(=O)N2C[C@@H]3[C@@H](COc4cccc(C(F)(F)F)n4)[C@@H]3C2)[nH]n1 [Compound 75, (1R,5S,6S)-3-[3-(Propan-2-yl)-1H-pyrazole-5-carbonyl]-6-({[6-(trifluoromethyl)pyridin-2-yl]oxy}methyl)-3-azabicyclo[3.1.0]hexane]",10 to 50
16,"CC(=O)N1CCC(c2cc3ncc(N4CCCC(COc5cccnc5C(F)(F)F)C4)nc3n2C)CC1 (stereo not shown) [Compound 73, 1-(4-(5-methyl-3-(3-(((2-(trifluoromethyl)pyridin-3-yl)oxy)methyl)piperidin-1-yl)-5H-pyrrolo[2,3-b]pyrazin-6-yl)piperidin-1-yl)ethan-1-one]",< 10
17,"Cc1ccccc1OCC1CCCN(C(=O)c2cnc3cc(-c4ccccc4)n(C)c3n2)C1 (stereo not shown) [Compound 49, (5-methyl-6-phenyl-5H-pyrrolo[2,3-b]pyrazin-3-yl)(3-((o-tolyloxy)methyl)piperidin-1-yl)methanone]",10 to 50
18,COc1ccc(OCC2CCN(Cc3noc(C4CCCO4)n3)CC2)cc1 (stereo not shown) [Compound 471],50 to 100
19,"Cc1ccccc1OCC1CCCN(C(=O)c2c(-c3ccccc3)n(C)c3nccnc23)C1 (stereo not shown) [Compound 81, (5-Methyl-6-phenyl-5H-pyrrolo[2,3-b]pyrazin-7-yl)(3-((o-tolyloxy)methyl)piperidin-1-yl)methanone]",10 to 50
20,"Cn1c(-c2ccccc2)cc2nc(C(=O)N3CCCC(COc4cccnc4C(F)(F)F)C3)cnc21 (stereo not shown) [Compound 68, (5-methyl-6-phenyl-5H-pyrrolo[2,3-b]pyrazin-2-yl)(3-(((2-(trifluoromethyl)pyridin-3-yl)oxy)methyl)piperidin-1-yl)methanone]",10 to 50
21,"c1ccc(OCC2CCN(c3cnc4ccccc4n3)CC2)cc1 [Compound 418, 2-[4-(Phenoxymethyl)piperidin-1-yl]quinoxaline]",10 to 50

# Now from value to compound:
row,EC50 [µM],SMILES
1,< 10,"CC1C(COc2cccnc2C(F)(F)F)CCCN1c1cnc2cnn(CC(F)F)c2n1 (stereo not shown) [Compound 116, 1-(2,2-Difluoroethyl)-6-(2-methyl-3-(((2-(trifluoromethyl)pyridin-3-yl)oxy)methyl)piperidin-1-yl)-1H-pyrazolo[3,4-b]pyrazine]"
2,10 to 50,"FC(F)Cn1ncc2ncc(N3CC4CC4(COc4cc(C(F)(F)F)ccn4)C3)nc21 (stereo not shown) [Compound 285, 3-[1-(2,2-Difluoroethyl)-1H-pyrazolo[3,4-b]pyrazin-6-yl]-1-({[4-(trifluoromethyl)pyridin-2-yl]oxy}methyl)-3-azabicyclo[3.1.0]hexane]"
3,10 to 50,"FC(F)Cn1ncc2ncc(N3C[C@@H]4[C@@H](COc5cccc(C(F)(F)F)n5)[C@@H]4C3)nc21 [Compound 36, (1R,5S,6S)-3-[1-(2,2-Difluoroethyl)-1H-pyrazolo[3,4-b]pyrazin-6-yl]-6-({[6-(trifluoromethyl)pyridin-2-yl]oxy}methyl)-3-azabicyclo[3.1.0]hexane]"
4,< 10,"C[C@@H]1CC[C@H](COc2cnccc2C(F)(F)F)CN1c1cnc2cnn(CC(F)F)c2n1 [Compound 274, 1-(2,2-Difluoroethyl)-6-((2R,5S)-2-methyl-5-(((4-(trifluoromethyl)pyridin-3-yl)oxy)methyl)piperidin-1-yl)-1H-pyrazolo[3,4-b]pyrazine]"
5,< 10,"C[C@@H]1C[C@H](COc2cccnc2C(F)(F)F)CN(c2cnc3cnn(CC(F)F)c3n2)C1 [Compound 47a, 1-(2,2-Difluoroethyl)-6-((3R,5S)-3-methyl-5-(((2-(trifluoromethyl)pyridin-3-yl)oxy)methyl)piperidin-1-yl)-1H-pyrazolo[3,4-b]pyrazine]"
6,> 100,"O=c1[nH]c(N2CCC[C@H](COc3cccnc3C(F)(F)F)C2)cc2c1cnn2CC(F)F [Compound 306, (S)-1-(2,2-difluoroethyl)-6-(3-(((2-(trifluoromethyl)pyridin-3-yl)oxy)methyl)piperidin-1-yl)-1,5-dihydro-4H-pyrazolo[4,3-c]pyridin-4-one]"
7,< 10,"COCC1CCC(COc2cccnc2C(F)(F)F)CN1c1cnc2cnn(CC(F)F)c2n1 (stereo not shown) [Compound 295, 1-(2,2-Difluoroethyl)-6-(2-(methoxymethyl)-5-(((2-(trifluoromethyl)pyridin-3-yl)oxy)methyl)piperidin-1-yl)-1H-pyrazolo[3,4-b]pyrazine]"
8,< 10,"C[C@@H]1CC[C@H](COc2cccnc2C(F)(F)F)CN1c1cnc2cnn(CC(F)F)c2n1 [Compound 80, 1-(2,2-Difluoroethyl)-6-((2R,5S)-2-methyl-5-(((2-(trifluoromethyl)pyridin-3-yl)oxy)methyl)piperidin-1-yl)-1H-pyrazolo[3,4-b]pyrazine]"
9,10 to 50,"FC(F)Cn1ncc2ncc(N3CCCC(F)(COc4cccc(C(F)(F)F)n4)C3)nc21 (stereo not shown) [Compound 43, 2-({1-[1-(2,2-Difluoroethyl)-1H-pyrazolo[3,4-b]pyrazin-6-yl]-3-fluoropiperidin-3-yl}methoxy)-6-(trifluoromethyl)pyridine]"
10,< 10,"FC(F)Cn1ncc2ncc(N3CCC(OC4CN(c5cccnc5C(F)(F)F)C4)CC3)nc21 [Compound 329, 1-(2,2-Difluoroethyl)-6-(4-((1-(2-(trifluoromethyl)pyridin-3-yl)azetidin-3-yl)oxy)piperidin-1-yl)-1H-pyrazolo[3,4-b]pyrazine]"
